These results are taken from ChEMBL document CHEMBL3507680, “University of Dundee, Gates Library screen for HepG2 cell viability”.

The nature of this data set: Human HepG2 cell viability assay in 384 well format. To be noted: HepG2 cells, read-out: Inhibition. The class given is toxicity, cell-based. Also noted: dose 125 nL, time 70.5 hour; cytotoxicity at 70.5 h: concentration not given beside the values.
`Cn1nc2c(cc1=O)CN(CC(=O)Nc1cc(C(C)(C)C)no1)CC2`: the cytotoxicity at 70.5 h is 13.4%.
Next, `Cn1cccc1C(=O)N1CCC(c2nnc(Cn3ccnc3)n2C)CC1`: -5.24%; `Cc1cc2c(=O)n3c(nc2s1)CCN(C(=O)c1cn(C)nc1C)CC3`: -1.48%; `CNc1nc(CNC(=O)Nc2ccc(OC(C)C)cc2C)cs1`: -2.53%.
Next, `O=C(NCCN1CCNC1=O)c1cnc(-c2cccnc2)nc1`: -3.28%; `CN(C)C(=O)[C@H]1C[C@@H]2CCN(C3CCOCC3)C[C@H]2O1`: -8.09%; `Cc1cc2n(n1)CC(CNCc1cnn(-c3ccccc3)c1)CN2` (stereo unspecified): -3.87%.
For `COc1cc(C(C)=O)ccc1OCCNCc1ccco1`, the cytotoxicity at 70.5 h is -3.22%.
Next, `Cc1cc(C)nc(Nc2ccc(C3CCCCN3)cn2)n1` (stereo unspecified): 18.8%.
With `CCOC(=O)[C@@H]1[C@@H](c2ccccc2)CN2CCN(C(=O)C3CC3)C[C@H]12`, the cytotoxicity at 70.5 h worked out at 16.5%.
Next, `CCn1c(CNC(=O)Nc2nc(C)c(C)o2)nc2ccccc21`: 14.3%; `CCNC(=O)[C@@H]1C[C@@H](N)CN1C(=O)c1[nH]c2ccccc2c1CC`: 18%; `CNc1nc(CNC(=O)Nc2ccccc2-c2noc(C)n2)cs1`: 7.32%.
Next, `Cc1ncc(CN2CCN(C(=O)N(C)C)[C@@H]3CS(=O)(=O)C[C@@H]32)cn1`: -26.5%; `O=C(CCc1ccco1)N1CCC(Nc2cccnn2)CC1`: 1.07%.
Next, `FC(F)(F)c1ccnc(N2CCCOCC2)c1`: -13.6%; `CC1CN(CC(=O)NC2CCCC2)CCN1c1ccc2nncn2n1` (stereo unspecified): -20.8%; `Cn1nc(N2CCCC(C(=O)Nc3nccs3)C2)ccc1=O` (stereo unspecified): 18%.
For `CCCc1n[nH]c(C2CN(CCNS(=O)(=O)CC)CCO2)n1` (stereo unspecified), the cytotoxicity at 70.5 h turned out to be 7.53%.
With `CC(=O)N1CCC(c2cc(C(F)(F)F)n3ccnc3n2)CC1`, the cytotoxicity at 70.5 h came to 5.43%.
The same measure for `Cc1cnc(C)c(N2CCC(c3nccn3Cc3cscn3)CC2)n1`: 14.9%; for `CCc1ccc(C(C)NCc2nccn2Cc2ccccc2)o1` (stereo unspecified): -9.96%.
The same measure for `COCCn1ccc2cc(C(=O)N3CCN(S(C)(=O)=O)CC3)ccc21`: -5.85%.
On to `O=C(NCCn1ccnc1)NCC(c1ccco1)N1CCCCC1` (stereo unspecified), for which the cytotoxicity at 70.5 h is -9.78%.
The same measure for `O=C(c1ccco1)N1C[C@@H]2OCCN(CCN3CCCC3)[C@@H]2C1`: -11.2%; for `CC(C)c1cc(N2CCC(C(C)N3CCCC3)CC2)n2nccc2n1` (stereo unspecified): -3.16%.
The same measure for `CC(C)Cc1cc(CC2(NCc3ccccc3Cl)COC2)no1`: 4.27%.
Next, `CC(C)=CCNC1CCCN(c2ccc(C)nn2)C1` (stereo unspecified): -1.28%; `Cc1cc(CN(C)C2CCCN(Cc3noc(C4CC4)n3)C2)no1` (stereo unspecified): 11.8%; `CO[C@@H]1CCN(Cc2cccs2)[C@@H]2CN(Cc3ccncc3)C[C@@H]21`: -3.45%.
For the molecule `Cc1noc(C)c1CCCNC(=O)C1CCN(C(=O)C2CCC2)CC1`, the cytotoxicity at 70.5 h is 5.79%.
The same measure for `c1cncc(-c2nnn3c2COCC(CNC2CCOCC2)C3)c1` (stereo unspecified): 12.3%.
Next, `Cc1cc(NCCNS(C)(=O)=O)nc2cc3c(cc12)CCC3`: -5.01%; `Cc1csc2c(C3CCCN(C(=O)CCn4ccnc4)C3)nc(C)n12` (stereo unspecified): 17.3%; `c1ccc(CN2CCOC3(CCN(c4ncccn4)CC3)C2)nc1`: 12%.
The same measure for `CC(NCc1cccnc1)c1cc2c(cc1Br)OCCO2` (stereo unspecified): -6.12%.
Consider `Cc1csc(C2(NCc3nnc(-c4ccco4)o3)CCCC2)n1`, for which the cytotoxicity at 70.5 h is 0.188%.
The same measure for `CC(C)(N)c1nc(C(F)F)cc(=O)[nH]1`: -6.3%; for `Nc1nccc(NCc2cc3n(n2)CCCN(C(=O)C2CCC2)C3)n1`: -6.62%.
Turning to `CNc1ncccc1C(=O)N1CCN(C)C2(CCN(C)CC2)C1`, the cytotoxicity at 70.5 h was -7.09%.
The same measure for `Cc1ccc2cc(C(=O)NCCN3CCS(=O)(=O)CC3)c(C)nc2c1`: -15.9%; for `CCC[C@H]1CN(CCS(C)(=O)=O)C[C@@H]1NC(=O)c1cc[nH]n1`: -16%.
Take `CN(C)C(=O)CN1CC[C@H]2CN(C3CCOCC3)C[C@@H]2C1=O`: the cytotoxicity at 70.5 h was -4.31%.
The same measure for `CO[C@@H]1CCN(Cc2cccs2)[C@H]1Cc1ccncc1`: -0.408%; for `CS(=O)(=O)NC1CCCN(C(=O)COCc2ccccc2)C1` (stereo unspecified): -10.6%.
In the case of `O=C(c1ccc(O)nc1)N1Cc2ccccc2OC2(CCOCC2)C1`, the cytotoxicity at 70.5 h came out at 0.0352%.
Next, `c1ccc(N2CCCC3(COCCN(c4nccs4)C3)C2)nc1` (stereo unspecified): -0.38%; `COc1ccc(NC2CCCN(Cc3cnc(N(C)C)s3)C2)cc1` (stereo unspecified): -6.11%.
The same measure for `CC(C)C(NC(=O)NCCNc1ncccn1)c1cccs1` (stereo unspecified): -6.23%.
Next, `CC(C)N1CCC(c2nc3ccc(-c4ccnn4C)cn3n2)CC1`: 19.8%.
Regarding `CCN1CCC(CC(=O)N(C)C(C)c2cncs2)CC1` (stereo unspecified), the cytotoxicity at 70.5 h is -1.72%.
Next, `CCc1cnc(N2CCC3(CCN(Cc4cccc(C)c4)C3=O)C2)nc1` (stereo unspecified): 1.75%.
The same measure for `CCc1cc(-c2nccn2-c2ccccc2CN2CCOCC2)on1`: 16.1%.
The same measure for `c1cnc(NCC2Cn3nnc(-c4ccoc4)c3CO2)nc1` (stereo unspecified): -13.1%.
With `COc1ccccc1C(=O)NC(CC(=O)O)c1cccs1` (stereo unspecified), the cytotoxicity at 70.5 h is -3.76%.
`Cc1nn(C)c2sc(C(=O)N3CCCC(n4ccnc4C)C3)cc12` (stereo unspecified): the cytotoxicity at 70.5 h was -7.74%.
Next, `COc1c(CNC2CCC(O)CC2)c(C(C)C)nn1C` (stereo unspecified): -5.04%; `OC(CN1CCOCC1)c1ccc(OC(F)(F)F)cc1` (stereo unspecified): -9.34%.
Next, `COc1cccc(C)c1C(=O)N1C[C@@H](CN(C)C)[C@@H](CO)C1`: -4.7%.
The same measure for `Cc1ccc2nccc(C(=O)N3CCOC(CCN(C)C)C3)c2c1` (stereo unspecified): 15.6%; for `Cn1cccc1CN1CCC2(CCCN(C(=O)c3cccnc3)C2)CC1`: -2.44%; for `Cc1nn(CC(=O)N2CCC3(CN(C)C(=O)O3)C2)c(=O)c2ccccc12` (stereo unspecified): -15%.
Turning to `CCCc1nnc(NC2CCN(C3CCCC3)CC2)o1`, the cytotoxicity at 70.5 h is -12.5%.
Next, `O=C1CCC2(CCOC2)CN1Cc1nc2ccc(Cl)cc2[nH]1` (stereo unspecified): -1.72%; `CC(C)(C)C(=O)NCCn1ccc(-c2ccccn2)n1`: -1.26%; `CCc1cnc(CN(C)C(C)C(=O)N2CCc3ccccc3C2)s1` (stereo unspecified): 0.736%.
The same measure for `Cc1ncc(C(=O)NCCOc2ccccc2F)c(C)n1`: 7.2%; for `CC(=O)Nc1nc(C(=O)NCc2ccc(N3CCCCC3)cc2)cs1`: -3.91%; for `CS(=O)(=O)NCC(=O)NC1(c2ccc(Cl)c(Cl)c2)CC1`: -2.05%.
Next, `COc1ccc(Cl)cc1NCC(=O)NCCc1ccccn1`: 5.95%; `COCC(=O)N1CC[C@H]2[C@H]1CCN2CC(C)C`: -12.6%.
